Values quoted from earlier work as cited in patent US11160861B2, “Adjuvanting systems and water-free vaccine compositions comprising a polyI:C polynucleotide adjuvant and a lipid-based adjuvant” (priority 2015, dated 2021).

Experiments:
murine DCs = conditions: in vitro stimulation of murine DCs, small amounts of adjuvant relative to other TLR agonists (Welters 2007)
[1] = variety of animal models and Phase I clinical trial in humans (Moyle 2008; Wiedemann 1991)

CCCCCCCCCCCCCCCC(=O)N[C@@H](CSC[C@@H](COC(=O)CCCCCCCCCCCCCCC)OC(=O)CCCCCCCCCCCCCCC)C(=O)O [Pam3Cys, tripalmitoyl-S-glyceryl-cysteine]
Production of pro-inflammatory cytokines IL-12p40, IL-6 and TNFα (murine DCs): high levels | Side effects [1]: no reported side effects
